Structures are written as SMILES.

We go through 17 molecules from US20250171432A1, “COMPOUNDS AND METHODS OF USE” (Tango Therapeutics, Inc., priority 2022, published 2025).

Common to all, as to format: cell-based
Assay [1] concerns SDMA (PRMT5 activity) in HAP1 MTAP-intact cell line. Briefly: SDMA in-cell western assay, HAP1 MTAP-intact. The conditions noted are these: Homo sapiens, HAP1, 24 h, SDMA in-cell western, HAP1 MTAP-intact cells, 24 hours compound incubation.
In assay [2] the test system is SDMA (PRMT5 activity) in HAP1 MTAP-deleted cell line. Briefly: SDMA in-cell western assay, HAP1 MTAP-deleted. The conditions noted are these: for IC50 / IC90: Homo sapiens, SDMA in-cell western, HAP1 MTAP-deleted cells, 24 hours compound incubation; for Hap1 MTAP intact/deleted ratio: ratio of SDMA IC50 in HAP1 MTAP-intact to HAP1 MTAP-deleted cell line.
The test system of assay [3] is HAP1 MTAP-deleted cell line. Briefly: Viability assay (CellTiter-Glo), HAP1 MTAP-deleted. The conditions noted are these: Homo sapiens, 168 h, HAP1 MTAP-deleted cells, 7 days. In short, it runs like this:
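HAP1 MTAP-deleted and MTAP-intact cells seeded, then dosed next day (n=3, 0.2% DMSO) and grown 7 days. Viability by CellTiter-Glo luminescence, expressed as % of DMSO control per cell line.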

In general, IC50 refers to the concentration needed to halve the response being measured. Lower therefore signals greater potency in that assay. In general, IC90 refers to the concentration needed for an effect of 90%. For the molecule `COc1ncc(NC(=O)C(=O)N2C[C@@H](C)CC[C@@H]2c2ccc3sc([C@H]4C[C@H](N(C)C)C4)nc3c2)cc1C(N)=O` (single isomer, unassigned) [Compound 50], the IC50 in assay [1] is greater than 50 nM; in assay [2], less than 5 nM; in assay [3], less than 100 nM. Further, in assay [2], the IC90 was less than 75 nM. The “Hap1 MTAP intact/deleted ratio” value in assay [2] is “A (“A” indicates an IC50 ratio greater than or equal to 30 fold)”.

In the case of `COc1ncc(NC(=O)C(=O)N2C[C@@H](C)CC[C@@H]2c2ccc3sc(C4=CCN(C)CC4)nc3c2)cc1C(N)=O` [Compound 83, 2-methoxy-5-(2-((2R,5S)-5-methyl-2-(2-(1-methyl-1,2,3,6-tetrahydropyridin-4-yl)benzo[d]thiazol-5-yl)piperidin-1-yl)-2-oxoacetamido)nicotinamide], the IC50 in assay [1] was greater than 50 nM. In assay [2], the IC50 is less than 5 nM, the 90% effect concentration (IC90) was less than 75 nM and the “Hap1 MTAP intact/deleted ratio” value was “A (“A” indicates an IC50 ratio greater than or equal to 30 fold)”. The molecule also registered an IC50 in assay [3] of less than 100 nM.

`CCc1cc(NC(=O)C(=O)N2C[C@@H](C)CC[C@@H]2c2ccc3sc([C@@H]4CN(C)CC(C)(C)C4)nc3c2)cnc1N` (single isomer, unassigned) [Compound 105]: the 50% inhibitory concentration (IC50) is greater than 50 nM in assay [1], less than 5 nM in assay [2] and less than 100 nM in assay [3]. In assay [2], the 90% effect concentration (IC90) is less than 75 nM. Besides, in assay [2], the “Hap1 MTAP intact/deleted ratio” value is reported as “A (“A” indicates an IC50 ratio greater than or equal to 30 fold)”.

In the case of `COc1ncc(NC(=O)C(=O)N2C[C@@H](C)CC[C@@H]2c2ccc3cc(C#N)c(C4CCN(C)CC4)nc3c2)cc1C(N)=O` [Compound 113, 5-(2-((2R,5S)-2-(3-cyano-2-(1-methylpiperidin-4-yl)quinolin-7-yl)-5-methylpiperidin-1-yl)-2-oxoacetamido)-2-methoxynicotinamide], the IC50 in assay [1] was greater than 50 nM. Besides, in assay [2], the IC50 was less than 5 nM, the IC90 was less than 75 nM and the “Hap1 MTAP intact/deleted ratio” value was “A (“A” indicates an IC50 ratio greater than or equal to 30 fold)”. Further, in assay [3], the IC50 is less than 100 nM.

In the case of `COc1ncc(NC(=O)C(=O)N2C[C@@H](C)CC[C@@H]2c2ccc3sc(C4=CCN(C)CCC4)nc3c2)cc1C(N)=O` [Compound 46, 2-methoxy-5-(2-((2R,5S)-5-methyl-2-(2-(1-methyl-2,5,6,7-tetrahydro-1H-azepin-4-yl)benzo[d]thiazol-5-yl)piperidin-1-yl)-2-oxoacetamido)nicotinamide], in assay [1], the half-maximal inhibitory concentration (IC50) was 5 to 50 nM. Moreover, in assay [2], the IC50 is less than 5 nM, the IC90 is less than 75 nM and the “Hap1 MTAP intact/deleted ratio” value is on record as “B (“B” indicates an IC50 ratio greater than or equal to 15 fold but lower than 30 fold)”. The molecule also had an IC50 in assay [3] of less than 100 nM.

The molecule `CCc1cc(NC(=O)C(=O)N2C[C@@H](C)CC[C@@H]2c2ccc3nn([C@@H]4CCN(C)C(C)(C)C4)cc3c2)cnc1N` [Compound 108] registered a 50% inhibitory concentration (IC50) in assay [1] of 5 to 50 nM. Further, in assay [2], the IC50 was less than 5 nM, the IC90 was less than 75 nM and the “Hap1 MTAP intact/deleted ratio” value was “B (“B” indicates an IC50 ratio greater than or equal to 15 fold but lower than 30 fold)”. In assay [3], the concentration for half-maximal inhibition (IC50) is less than 100 nM.

For the molecule `CCc1cc(NC(=O)C(=O)N2C[C@@H](C)CC[C@@H]2c2ccc3cn([C@H]4C[C@H](C)CN(C)C4)nc3c2)cnc1N` (relative stereo) [Compound 85, N-(6-amino-5-ethylpyridin-3-yl)-2-((2R,5S)-2-(2-(1,5-dimethylpiperidin-3-yl)-2H-indazol-6-yl)-5-methylpiperidin-1-yl)-2-oxoacetamide], the IC50 in assay [1] is greater than 50 nM; in assay [2], less than 5 nM; in assay [3] it was less than 100 nM. The molecule also came in with an IC90 in assay [2] of less than 75 nM. In assay [2], the “Hap1 MTAP intact/deleted ratio” value was “A (“A” indicates an IC50 ratio greater than or equal to 30 fold)”.

The molecule `COc1ncc(NC(=O)C(=O)N2C[C@@H](C)CC[C@@H]2c2ccc3sc([C@H]4CN(C)CC4(C)C)nc3c2)cc1C(N)=O` (single isomer, unassigned) [Compound 36] came in with an IC50 in assay [1] greater than 50 nM. For the same molecule, in assay [2], the half-inhibitory concentration (IC50) was less than 5 nM, the IC90 was less than 75 nM and the “Hap1 MTAP intact/deleted ratio” value was “A (“A” indicates an IC50 ratio greater than or equal to 30 fold)”. Further, the IC50 in assay [3] is less than 100 nM.

`CCc1cc(NC(=O)C(=O)N2C[C@@H](C)CC[C@@H]2c2ccc3cn(C4CCCN(C)C4)nc3c2)cnc1N` (single isomer, unassigned) [Compound 80] came in with an IC50 in assay [1] of 5 to 50 nM. Besides, in assay [2], the IC50 is less than 5 nM, the IC90 was less than 75 nM and the “Hap1 MTAP intact/deleted ratio” value is listed as “C (“C” indicates an IC50 ratio of less than 15 fold)”. The molecule also had an IC50 in assay [3] of less than 100 nM.

In assay [1], `CCc1cc(NC(=O)C(=O)N2C[C@@H](C)CC[C@@H]2c2ccc3sc([C@H]4C[C@@H](N(C)C)C4)nc3c2)cnc1N` [Compound 40, N-(6-amino-5-ethyl-3-pyridyl)-2-oxo-2-[(2R,5S)-2-[2-[3-(dimethylamino)cyclobutyl]-1,3-benzothiazol-5-yl]-5-methyl-1-piperidyl]acetamide] returned an IC50 greater than 50 nM. Besides, in assay [2], the IC50 is less than 5 nM, the IC90 was less than 75 nM and the “Hap1 MTAP intact/deleted ratio” value is reported as “A (“A” indicates an IC50 ratio greater than or equal to 30 fold)”. The molecule also came in with an IC50 in assay [3] of less than 100 nM.

As for `COc1ncc(NC(=O)C(=O)N2C[C@@H](C)CC[C@@H]2c2ccc3sc(CC(C)N4CCCC4)nc3c2)cc1C(N)=O` (mixture of isomers) [Compound 57, 2-methoxy-5-(2-((2R,5S)-5-methyl-2-(2-(2-(pyrrolidin-1-yl)propyl)benzo[d]thiazol-5-yl)piperidin-1-yl)-2-oxoacetamido)nicotinamide], the IC50 in assay [1] was greater than 50 nM; in assay [2] it was less than 5 nM; in assay [3], less than 100 nM. Moreover, the 90% effect concentration (IC90) in assay [2] is less than 75 nM. The “Hap1 MTAP intact/deleted ratio” value in assay [2] was “A (“A” indicates an IC50 ratio greater than or equal to 30 fold)”.

Regarding `CCc1cc(NC(=O)C(=O)N2C[C@@H](C)CC[C@@H]2c2ccc3sc([C@H]4C[C@H](N(C)C)C4)nc3c2)cnc1N` (single isomer, unassigned) [Compound 43], the IC50 in assay [1] was greater than 50 nM. Further, in assay [2], the IC50 is less than 5 nM, the IC90 was less than 75 nM and the “Hap1 MTAP intact/deleted ratio” value was “A (“A” indicates an IC50 ratio greater than or equal to 30 fold)”. The molecule also yielded a half-maximal inhibitory concentration (IC50) in assay [3] of less than 100 nM.

For `COc1ncc(NC(=O)C(=O)N2C[C@@H](C)CC[C@@H]2c2ccc3sc([C@@H](C)CN(C)C)nc3c2)cc1C(N)=O` [Compound 14, 2-methoxy-5-[[2-oxo-2-[(2R,5S)-5-methyl-2-[2-[(^1R)-2-(dimethylamino)-1-methyl-ethyl]-1,3-benzothiazol-5-yl]-1-piperidyl]acetyl]amino]pyridine-3-carboxamide], the 50% inhibitory concentration (IC50) was 5 to 50 nM in assay [1], less than 5 nM in assay [2] and less than 100 nM in assay [3]. Besides, in assay [2], the IC90 was less than 75 nM. The “Hap1 MTAP intact/deleted ratio” value in assay [2] is reported as “B (“B” indicates an IC50 ratio greater than or equal to 15 fold but lower than 30 fold)”.

`COc1ncc(NC(=O)C(=O)N2C[C@@H](C)CC[C@@H]2c2ccc3sc(CC(C)(C)N(C)C)nc3c2)cc1C(N)=O` [Compound 120, 5-(2-((2R,5S)-2-(2-(2-(dimethylamino)-2-methylpropyl)benzo[d]thiazol-5-yl)-5-methylpiperidin-1-yl)-2-oxoacetamido)-2-methoxynicotinamide] showed a concentration for half-maximal inhibition (IC50) in assay [1] greater than 50 nM. In assay [2], the IC50 is less than 5 nM, the IC90 was less than 75 nM and the “Hap1 MTAP intact/deleted ratio” value is “A (“A” indicates an IC50 ratio greater than or equal to 30 fold)”. Further, the IC50 in assay [3] was less than 100 nM.

Take `CCc1cc(NC(=O)C(=O)N2C[C@@H](C)CC[C@@H]2c2ccc3cn([C@H]4CCN(C)C[C@H]4C)nc3c2)cnc1N` [Compound 42]: the IC50 in assay [1] was greater than 50 nM. For the same molecule, in assay [2], the IC50 is less than 5 nM, the IC90 is less than 75 nM and the “Hap1 MTAP intact/deleted ratio” value is recorded as “B (“B” indicates an IC50 ratio greater than or equal to 15 fold but lower than 30 fold)”. In assay [3], this molecule registered an IC50 of less than 100 nM.

`CCc1cc(NC(=O)C(=O)N2C[C@@H](C)CC[C@@H]2c2ccc3sc(C[C@H](C)N(C)C)nc3c2)cnc1N` [Compound 55, N-(6-amino-5-ethylpyridin-3-yl)-2-((2R,5S)-2-(2-((S)-2-(dimethylamino)propyl)benzo[d]thiazol-5-yl)-5-methylpiperidin-1-yl)-2-oxoacetamide]: the IC50 was 5 to 50 nM in assay [1], less than 5 nM in assay [2] and less than 100 nM in assay [3]. The IC90 in assay [2] was less than 75 nM. In assay [2], the “Hap1 MTAP intact/deleted ratio” value is “B (“B” indicates an IC50 ratio greater than or equal to 15 fold but lower than 30 fold)”.

Turning to `CCc1cc(NC(=O)C(=O)N2C[C@@H](C)CC[C@@H]2c2ccc3cc(C#N)c(C4CCN(C)CC4)nc3c2)cnc1N` [Compound 63, N-(6-amino-5-ethylpyridin-3-yl)-2-((2R,5S)-2-(3-cyano-2-(1-methylpiperidin-4-yl)quinolin-7-yl)-5-methylpiperidin-1-yl)-2-oxoacetamide], the half-maximal inhibitory concentration (IC50) in assay [1] was greater than 50 nM. Besides, in assay [2], the IC50 was less than 5 nM, the IC90 is less than 75 nM and the “Hap1 MTAP intact/deleted ratio” value is given as “A (“A” indicates an IC50 ratio greater than or equal to 30 fold)”. Besides, the IC50 in assay [3] is less than 100 nM.
